From patent US20220218647A1, “DIETARY BUTYRATE” (SOCIETE DES PRODUITS NESTLE S.A., priority 2019, published 2022)

Columns and labels:
[1] = biological target: T1, porcine pancreatic lipase (PPL) (Sus scrofa, UniProt P00591); experiment: In vitro lipid digestion in simulated intestinal fluid (SIF), pH-stat; assay type: in vitro ADME; set-up: by porcine pancreatic lipase (from pancreatin); from tissue; host or cells: pancreatin (pig pancreas extract); conditions: SIF alone; emulsion containing 200 mg fat, pH 6.8, 37° C.
T1 sequence (P00591 1-450): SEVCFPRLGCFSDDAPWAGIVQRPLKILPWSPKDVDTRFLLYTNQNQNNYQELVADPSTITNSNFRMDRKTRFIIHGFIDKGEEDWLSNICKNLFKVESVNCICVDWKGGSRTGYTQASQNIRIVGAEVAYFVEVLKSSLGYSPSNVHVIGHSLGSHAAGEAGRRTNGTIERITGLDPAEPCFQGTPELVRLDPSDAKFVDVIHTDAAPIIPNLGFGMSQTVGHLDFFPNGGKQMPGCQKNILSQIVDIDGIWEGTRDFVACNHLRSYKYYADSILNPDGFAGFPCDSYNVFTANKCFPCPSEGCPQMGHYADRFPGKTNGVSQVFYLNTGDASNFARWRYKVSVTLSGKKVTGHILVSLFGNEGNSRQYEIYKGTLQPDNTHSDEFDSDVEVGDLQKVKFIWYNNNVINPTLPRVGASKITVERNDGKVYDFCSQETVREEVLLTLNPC
T1 sequence (P02703 23-112 partner): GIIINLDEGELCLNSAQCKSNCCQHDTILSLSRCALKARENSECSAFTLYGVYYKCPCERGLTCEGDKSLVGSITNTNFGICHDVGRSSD
Source text: (§1) An emulsion was then created using an ultrasonic probe homogeniser.

[2] = biological target: T1, porcine pancreatic lipase (PPL); conditions: pig, 3 h, pH 11.5
Source text: Because many fatty acids are only partially ionised at pH 6.8, direct titration gives only partial picture of the extent of lipid digestion, instead back titration to pH 11.5 or GC-FAME analysis is required to estimate the full extent of digestion.

[3] = test system: rabbit gastric lipase (RGL) followed by porcine pancreatic lipase (PPL); experiment: Sequential in vitro digestion in simulated gastric fluid (SGF) followed by SIF, pH-stat; assay type: in vitro ADME
Source text: as §1

Compound: CCCC(=O)OCC(COC(=O)CCC)OC(=O)CCC [tributyrin]
- initial rate of lipolysis [1]: 223 ± 59 µmol/min
- extent of digestion [2]: 101.5±0.9%
- initial lipolysis rate in SIF compartment ([3]; SGF-SIF sequential digestion, 200 mg fat): 44.1 ± 8.8 µmol/min
- hydrolysis in the stomach ([3]; gastric compartment of the model): extensive hydrolysis
- lipolysis by gastric lipase ([3]; indicated by decreased total fatty acid release during SIF lipolysis after pre-exposure to RGL in SGF): ~60%
